The text below walks through data of patent US9249125B2, “Pyrazole derivatives as p38 MAP inhibitors” (RESPIVERT LIMITED, priority 2012, dated 2016).

Data set [1] deals with Poly I:C-induced ICAM-1 expression in BEAS2B cells. In words: Poly I:C-induced ICAM-1 expression in BEAS2B cells. Type of data set: cell-based. The note with it: Homo sapiens, BEAS-2B, read-out: Poly IC induced ICAM1 in BEAS2B IC50. In short, it runs like this:
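Cell-based ELISA read at 450 nm minus 655 nm, divided by crystal violet OD595 to normalize for cell number, gave ICAM-1 levels. Readout was taken 18 hr after poly I:C (1 μg/mL, Oligofectamine) transfection of human bronchial BEAS2B cells pretreated 2 hr with test compound.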

The target in the next data set is cSrc (Homo sapiens (Human), UniProt P12931). Briefly: c-Src enzyme inhibition (FRET, Z-LYTE). In kind it is biochemical. In short, it runs like this:
(§1)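 Z-LYTE FRET kinase assay: enzyme (3000 or 2000 ng/mL stock, respectively) preincubated 2 h at RT with compound (4–0.004 μg/mL stocks), then FRET peptide plus ATP (800 μM stock for c-Src, 60 μM for Syk) added for 1 h. Protease development 1 h; phosphorylation from coumarin/fluorescein emission ratio.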

Another data set deals with GSK3α (Homo sapiens (Human), UniProt P49840). In words: GSK 3α enzyme inhibition (FRET, Z-LYTE). Type of data set: biochemical. In short, it runs like this: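 Phosphorylation was read as the donor (coumarin) to acceptor (fluorescein) ratio after a 1 hr protease step destroying non-phosphorylated peptide. Before this, compound (4–0.004 μg/mL stocks) sat 2 hr at RT with GSK3α (500 ng/mL stock), followed by 1 hr kinase reaction with 8 μM peptide and 40 μM ATP stocks.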

The subject of data set [2] is LPS-induced TNFα release in d-U937 cells. In words: LPS-induced TNFα release in d-U937 cells. Type of data set: cell-based. As to conditions: Homo sapiens, dU937, relative to 10 μg/mL BIRB796, read-out: LPS Induced Release of Cytokine in d-937 Cells TNFα REC50. On the procedure: U937 cells, a human monocytic cell line, are differentiated into macrophage-type cells by incubation with PMA (100 ng/mL) for 48 to 72 hr. Cells are pre-incubated with final concentrations of test compound for 2 hr and are then stimulated with LPS (0.1 μg/mL) (from E. coli: O111:B4, Sigma) for 4 hr. The supernatant is collected for determination of TNFα and IL-8 concentrations by sandwich ELISA (Duo-set, R&D systems). […] The relative 50% effective concentration (REC50) is determined from the resultant concentration-response curve. The inhibition of IL-8 production is calculated at each concentration of test compound by comparison with vehicle control. […] (b) LPS-Induced TNFα/IL-8 Release in PBMC Cells

A further data set deals with Syk (Homo sapiens (Human), UniProt P43405). In words: Syk enzyme inhibition (FRET, Z-LYTE). Type of data set: biochemical. In short, it runs like this:
as §1

The target of another data set is p38 MAPKα (Homo sapiens (Human), UniProt Q16539). In words: p38 MAPKα enzyme inhibition (FRET, Z-LYTE). In kind it is biochemical.
The next data set has as its system d-U937 cells. In words: Cell viability: MTT assay. Type of data set: cell-based, human. The note with it: 1 μg/mL. In short, it runs like this:
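MTT read-out (1 h, absorbance 550 nm) on d-U937 cells after pre-incubation with 1 or 10 μg/mL compound under two regimes: 4 h, 5% FCS, or 24 h, 10% FCS RPMI1640. Values are percent loss of viability relative to vehicle (0.5% DMSO), so increases are reported as negative.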
On the technique in general: Tetrazolium dyes change colour on reduction, which living cells bring about.

Data set [3] deals with LPS-induced IL-8 release in d-U937 cells. Briefly: LPS-induced IL-8 release in d-U937 cells. Type of data set: cell-based. As to conditions: Homo sapiens, dU937, read-out: LPS Induced Release of Cytokine in d-937 Cells IL-8 IC50. In short, it runs like this: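 Read-out: TNFα and IL-8 released into supernatant, sandwich ELISA, expressed as inhibition versus vehicle at each dose and fitted to give REC50. Cells were PMA-differentiated U937 (100 ng/mL, 48–72 hr), compound-exposed 2 hr before a 4 hr LPS stimulus (0.1 μg/mL).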

Bounds are passed on as bounds.

cSrc, sequence (P12931 whole entry, looked up): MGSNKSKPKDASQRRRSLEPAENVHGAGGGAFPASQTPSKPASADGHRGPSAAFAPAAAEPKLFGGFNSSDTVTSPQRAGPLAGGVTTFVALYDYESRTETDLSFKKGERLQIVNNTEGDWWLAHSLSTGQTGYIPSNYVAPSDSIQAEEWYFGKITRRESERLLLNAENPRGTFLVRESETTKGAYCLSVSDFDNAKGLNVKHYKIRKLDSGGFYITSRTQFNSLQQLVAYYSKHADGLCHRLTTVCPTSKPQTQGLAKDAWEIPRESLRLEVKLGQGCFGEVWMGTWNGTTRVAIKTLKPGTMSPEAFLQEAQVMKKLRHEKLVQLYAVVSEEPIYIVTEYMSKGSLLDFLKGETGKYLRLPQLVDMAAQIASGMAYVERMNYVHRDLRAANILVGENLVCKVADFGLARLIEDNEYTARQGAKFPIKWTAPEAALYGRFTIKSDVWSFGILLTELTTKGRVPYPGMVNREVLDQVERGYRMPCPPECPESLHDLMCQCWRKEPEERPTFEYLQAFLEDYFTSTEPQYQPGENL
GSK3α, sequence (P49840 whole entry): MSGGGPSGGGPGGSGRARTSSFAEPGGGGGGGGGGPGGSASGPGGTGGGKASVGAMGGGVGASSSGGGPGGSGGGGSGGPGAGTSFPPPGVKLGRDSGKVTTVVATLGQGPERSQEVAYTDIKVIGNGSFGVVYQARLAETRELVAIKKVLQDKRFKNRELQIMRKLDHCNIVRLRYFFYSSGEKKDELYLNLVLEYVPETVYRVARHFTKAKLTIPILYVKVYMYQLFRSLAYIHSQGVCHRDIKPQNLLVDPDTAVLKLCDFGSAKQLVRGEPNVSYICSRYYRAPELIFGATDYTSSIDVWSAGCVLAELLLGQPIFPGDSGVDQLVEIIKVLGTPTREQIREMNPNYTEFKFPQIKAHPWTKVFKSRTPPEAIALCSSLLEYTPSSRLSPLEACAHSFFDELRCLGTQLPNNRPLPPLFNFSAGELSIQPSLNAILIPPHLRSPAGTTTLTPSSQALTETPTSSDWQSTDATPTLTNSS
p38 MAPKα, sequence (Q16539 whole entry): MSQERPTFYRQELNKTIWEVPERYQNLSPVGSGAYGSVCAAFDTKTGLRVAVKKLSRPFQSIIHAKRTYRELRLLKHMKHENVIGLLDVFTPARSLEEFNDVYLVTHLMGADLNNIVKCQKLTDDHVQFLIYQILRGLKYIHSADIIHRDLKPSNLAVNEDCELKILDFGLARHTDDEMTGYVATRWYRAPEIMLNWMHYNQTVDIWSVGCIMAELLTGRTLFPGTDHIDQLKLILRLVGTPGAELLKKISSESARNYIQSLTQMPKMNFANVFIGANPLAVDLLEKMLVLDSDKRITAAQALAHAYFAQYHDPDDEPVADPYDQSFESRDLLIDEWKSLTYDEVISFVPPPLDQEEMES

Consider `Cc1ccc(-n2nc(C(C)(C)C)cc2NC(=O)Nc2ccc(Oc3ccnc(Nc4cnc5[nH]ncc5c4)n3)c3ccccc23)cc1` [Example 6, 1-(4-((2-((1H-Pyrazolo[3,4-b]pyridin-5-yl)amino)pyrimidin-4-yl)oxy)naphthalen-1-yl)-3-(3-(tert-butyl)-1-(p-tolyl)-1H-pyrazol-5-yl)urea], for which the IC50 in data set [1] was 1.7 nM; on cSrc, 14 nM; against GSK3α it was above 16000 nM; against Syk, 162 nM; against p38 MAPKα, 177 nM; in data set [3], 5.3 nM. Further, in data set [2], the EC50 came to 1.6 nM. Also, the “MTT Assay Cell viability at time point in d-U937 cells 4 h” value in the data set with d-U937 cells was “−ve (−ve and +ve indicate that the value is below and above respectively, the no significant effect threshold, defined as 30% inhibition at 1 μg/mL at the time point indicated.)”. In addition, in the data set on d-U937 cells, the “MTT Assay Cell viability at time point in d-U937 cells 24 h” value was “−ve (−ve and +ve indicate that the value is below and above respectively, the no significant effect threshold, defined as 30% inhibition at 1 μg/mL at the time point indicated.)”.

On to `CC(C)(C)c1cc(NC(=O)Nc2ccc(Oc3ccnc(Nc4ccc5c(c4)COC5)n3)c3ccccc23)n(-c2ccc(OCCN3CCOCC3)cc2)n1` [Example 60, 1-(3-(tert-butyl)-1-(4-(2-morpholinoethoxy)phenyl)-1H-pyrazol-5-yl)-3-(4-((2-((1,3-dihydroisobenzofuran-5-yl)amino)pyrimidin-4-yl)oxy)naphthalen-1-yl)urea], for which the 50% inhibitory concentration (IC50) in data set [1] turned out to be 1.4 nM; against cSrc, 2 nM; at GSK3α, 686 nM; on Syk, 13 nM; on p38 MAPKα, 94 nM; in data set [3] it was 10.3 nM. In data set [2], the EC50 is 1.8 nM. Also, in the data set on d-U937 cells, the “MTT Assay Cell viability at time point in d-U937 cells 4 h” value was “−ve (−ve and +ve indicate that the value is below and above respectively, the no significant effect threshold, defined as 30% inhibition at 1 μg/mL at the time point indicated.)”. The “MTT Assay Cell viability at time point in d-U937 cells 24 h” value in the data set with d-U937 cells was “−ve (−ve and +ve indicate that the value is below and above respectively, the no significant effect threshold, defined as 30% inhibition at 1 μg/mL at the time point indicated.)”.

On to `Cc1ccc(-n2nc(C(C)(C)C)cc2NC(=O)Nc2ccc(Oc3ccnc(Nc4ccc5[nH]nc(C(=O)NCCN6CCOCC6)c5c4)n3)c3ccccc23)cc1` [Example 3, 5-((4-((4-(3-(3-(tert-Butyl)-1-(p-tolyl)-1H-pyrazol-5-yl)ureido)naphthalen-1-yl)oxy)pyrimidin-2-yl)amino)-N-(2-morpholinoethyl)-1H-indazole-3-carboxamide], for which the half-maximal inhibitory concentration (IC50) in data set [1] worked out at 6.8 nM; against cSrc, 6 nM; at GSK3α it was 2330 nM; against Syk it was 95 nM; against p38 MAPKα it was 19 nM; in data set [3] it was 34.8 nM. Also, in data set [2], the EC50 came out at 5.2 nM. In addition, the “MTT Assay Cell viability at time point in d-U937 cells 4 h” value in the data set on d-U937 cells is “−ve (−ve and +ve indicate that the value is below and above respectively, the no significant effect threshold, defined as 30% inhibition at 1 μg/mL at the time point indicated.)”. In addition, the “MTT Assay Cell viability at time point in d-U937 cells 24 h” value with d-U937 cells was “−ve (−ve and +ve indicate that the value is below and above respectively, the no significant effect threshold, defined as 30% inhibition at 1 μg/mL at the time point indicated.)”.

Regarding `CC(C)(C)c1cc(NC(=O)Nc2ccc(Oc3cc(Nc4ccc5[nH]ncc5c4)ncn3)c3ccccc23)n(-c2ccc(=O)n(CCO)c2)n1` [Example 14, 1-(4-((6-((1H-Indazol-5-yl)amino)pyrimidin-4-yl)oxy)naphthalen-1-yl)-3-(3-(tert-butyl)-1-(1-(2-hydroxyethyl)-6-oxo-1,6-dihydropyridin-3-yl)-1H-pyrazol-5-yl)urea], the 50% inhibitory concentration (IC50) in data set [1] was 52.4 nM; against cSrc it was 2 nM; on GSK3α it was 1090 nM; against Syk, 7 nM; against p38 MAPKα it was 3 nM; in data set [3], 18.4 nM. Further, in data set [2], the EC50 is 7.5 nM. Also, in the data set with d-U937 cells, the “MTT Assay Cell viability at time point in d-U937 cells 4 h” value was “−ve (−ve and +ve indicate that the value is below and above respectively, the no significant effect threshold, defined as 30% inhibition at 1 μg/mL at the time point indicated.)”. For the same compound, the “MTT Assay Cell viability at time point in d-U937 cells 24 h” value in the data set on d-U937 cells is “−ve (−ve and +ve indicate that the value is below and above respectively, the no significant effect threshold, defined as 30% inhibition at 1 μg/mL at the time point indicated.)”.

Turning to `CC(C)(C)c1cc(NC(=O)Nc2ccc(Oc3ccnc(Nc4ccc5c(cnn5CCN5CCOCC5)c4)n3)c3ccccc23)n(-c2ccc(OCCN3CCOCC3)cc2)n1` [Example 74, 1-(3-(tert-butyl)-1-(4-(2-morpholinoethoxy)phenyl)-1H-pyrazol-5-yl)-3-(4-((2-((1-(2-morpholinoethyl)-1H-indazol-5-yl)amino)pyrimidin-4-yl)oxy)naphthalen-1-yl)urea], the IC50 in data set [1] is 2.7 nM; at cSrc, below 1 nM; at GSK3α, 597 nM; on Syk, 1 nM; against p38 MAPKα, 27 nM; in data set [3], 192 nM. In data set [2], the EC50 is 3.6 nM. The “MTT Assay Cell viability at time point in d-U937 cells 4 h” value in the data set with d-U937 cells was “−ve (−ve and +ve indicate that the value is below and above respectively, the no significant effect threshold, defined as 30% inhibition at 1 μg/mL at the time point indicated.)”. Besides, in the data set with d-U937 cells, the “MTT Assay Cell viability at time point in d-U937 cells 24 h” value is “−ve (−ve and +ve indicate that the value is below and above respectively, the no significant effect threshold, defined as 30% inhibition at 1 μg/mL at the time point indicated.)”.

Regarding `COc1ccc(-n2nc(C(C)(C)C)cc2NC(=O)Nc2ccc(Oc3ccnc(Nc4ccc5[nH]nc(OCCN6CCOCC6)c5c4)n3)c3ccccc23)cc1` [Example 45, 1-(3-(tert-butyl)-1-(4-methoxyphenyl)-1H-pyrazol-5-yl)-3-(4-((2-((3-(2-morpholinoethoxy)-1H-indazol-5-yl)amino)pyrimidin-4-yl)oxy)naphthalen-1-yl)urea], the IC50 came out at 1.2 nM in data set [1]; 5 nM against cSrc; 407 nM against GSK3α; 3 nM against Syk; 17 nM against p38 MAPKα; 1.6 nM in data set [3]. Also, the EC50 in data set [2] came out at 0.9 nM. For the same compound, the “MTT Assay Cell viability at time point in d-U937 cells 4 h” value in the data set on d-U937 cells is “−ve (−ve and +ve indicate that the value is below and above respectively, the no significant effect threshold, defined as 30% inhibition at 1 μg/mL at the time point indicated.)”. In addition, the “MTT Assay Cell viability at time point in d-U937 cells 24 h” value with d-U937 cells is “−ve (−ve and +ve indicate that the value is below and above respectively, the no significant effect threshold, defined as 30% inhibition at 1 μg/mL at the time point indicated.)”.

Consider `Cc1ccc(-n2nc(C(C)(C)C)cc2NC(=O)Nc2ccc(Oc3ccnc(Nc4cccc5[nH]ccc45)n3)c3ccccc23)cc1` [Example 16], for which the IC50 in data set [1] was 8.9 nM; on cSrc it was 22 nM; at GSK3α it was above 16100 nM; against Syk, 65 nM; against p38 MAPKα, 101 nM; in data set [3], 2.6 nM. In addition, the EC50 in data set [2] amounted to 2 nM. In the data set on d-U937 cells, the “MTT Assay Cell viability at time point in d-U937 cells 4 h” value was “−ve (−ve and +ve indicate that the value is below and above respectively, the no significant effect threshold, defined as 30% inhibition at 1 μg/mL at the time point indicated.)”. Moreover, in the data set on d-U937 cells, the “MTT Assay Cell viability at time point in d-U937 cells 24 h” value was “−ve (−ve and +ve indicate that the value is below and above respectively, the no significant effect threshold, defined as 30% inhibition at 1 μg/mL at the time point indicated.)”.

The term IC50 denotes the concentration at which inhibition is half-maximal.
